TGI and GI50 data for 15 compounds are collected here from PubChem BioAssay (NCI).

Several values for one entry are separate records, joined by “and”; a condition that tells them apart may be missing. Equal entries are not always repeated.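 Five concentrations, 48 hours, 96-well plates. The concentration for 50% growth inhibition is given as GI50. Definition used: TGI = concentration required for complete inhibition of growth.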 *1 amine or outer side, *2 acyl side, *3 side chain or, on linkers, in order; H or OH if unused. Where a SMILES comes first, the peptide text is derived from it. Bridges are numbered along the chain shown (N, C = ends). [ ]: non-standard residue; d: D form. ξ: configuration not given here. X4 = CCC(C)C(N[*:1])C(O)CC(=O)O[C@H](C(=O)C(C)C(=O)[*:2])C(C)C; NMeY = CN[C@@H](Cc1ccc(O)cc1)C(=O)O; ξNMeL = CNC(CC(C)C)C(=O)O; ξT = CC(O)C(N)C(=O)O

Holding throughout (assay): NCI-60 cell line screen, 48 h
The subject of test [1] is OVCAR-3 ovarian.
Test [2] concerns NCI-H522 lung.
Test [3] relates to MCF7 breast.
For test [4], the system named is CAKI-1 renal.
Test [5] relates to HCC-2998 colon.
In test [6] the test system is IGROV1 ovarian.
Test [7] has as its system SNB-75 CNS.
Test [8] deals with UACC-257 melanoma.
The test system of test [9] is NCI-H226 lung.
Test [10] concerns EKVX NSCLC.

With `OCCN=C1Nc2ccc(Cl)cc2C(=S)N2CSC[C@@H]12`, the TGI in [1], in test [2], in test [3], in test [4] and in [5] was greater than 100 µM throughout.

As to `O=C(NCCNCCO)N/N=C/c1ccc(Cl)cc1`, the TGI in [1], in test [2], in test [6], in [7], in [3] and in test [4] was greater than 100 µM in each case. Moreover, the TGI in [8], in [9] and in test [5] was greater than 100 µM throughout.

As for `O=C(c1ccco1)N(C(=S)OCc1ccccn1)c1ccccc1`, the TGI in [1], in test [10], in [6], in [3], in test [4] and in [8] was greater than 100 µM each time. This compound also registered a TGI in test [9] greater than 100 µM.

Turning to `O=C(N=Nc1ccccc1Br)NNc1ccccc1Br`, the TGI in test [1], in test [2], in test [6], in test [7], in test [4] and in test [8] was greater than 100 µM each time. The TGI in test [9] is greater than 100 µM; in [5], 56.6 µM.

For the compound `O=C(NCCO)c1ccc(Cl)cc1`, the TGI in test [1], in test [10], in test [2], in test [6], in test [7] and in [4] was greater than 100 µM in each case. Besides, the TGI in [8], in test [9] and in test [5] was greater than 100 µM in each case.

On to `CCC(C)C1NC(=O)C(NC(=O)C(CC(C)C)N(C)C(=O)[C@@H]2CCCN2)C(C)OC(=O)[C@H](Cc2ccc(OC)cc2)N(C)C(=O)[C@@H]2CCCN2C(=O)[C@H](CC(C)C)NC(=O)C(C)C(=O)[C@H](C(C)C)OC(=O)CC1O` (stereo partly specified) (H-P[ξNMeL][ξT][X4]LP[NMeY](Me); ester 3-C), for which the TGI is 0.00686 µM in [1]; 0.0474 µM in [10]; 0.00653 µM in [2]; 0.0107 µM in test [6]; 0.00813 µM and 0.0191 µM in test [7]; 0.364 µM and 0.13 µM in test [4]. The TGI was 0.00814 µM and 0.0465 µM in test [8]; 0.0104 µM and 0.0108 µM in test [5].

Take `COC(OC)C(O)C1OC=CC1n1cnc2c(N)ncnc21` (stereo unspecified): the TGI in test [1], in [10], in [6], in test [7], in test [3] and in test [4] was greater than 100 µM in each case. Moreover, the TGI in test [8], in test [9] and in test [5] was greater than 100 µM in each case.

For `COc1cc2ccnc3c2c(c1O)N(C)C=C3`, the TGI in [1] was 17.8 µM; in test [10], 33.4 µM; in test [6], 26.1 µM; in test [7] it was 38.8 µM; in test [3], greater than 91.6 µM; in [4], 20.6 µM. For the same compound, the TGI was found to be 32.5 µM in test [8], 37.4 µM in test [9] and 48.2 µM in test [5].

`NC(N)=N/N=C/c1nc2sccn2c1[N+](=O)[O-]`: the TGI in test [1] is 50.5 µM; in test [10], greater than 100 µM; in [2] it was 89.9 µM; in [6] it was greater than 100 µM; in [7], 39.5 µM; in test [3], 36.4 µM. Also, the TGI is greater than 100 µM in test [4], 31.7 µM in test [8] and greater than 100 µM in [9].

For the compound `COC(=O)C1(C(=O)OC)N=C(C)OC1C(C)C` (stereo unspecified), the TGI in [1], in test [10], in test [7], in [3], in [4] and in test [8] was greater than 100 µM in each case. Also, the TGI in test [9] and in test [5] was greater than 100 µM in each case.

In the case of `Nc1nc2c(ncn2C2C=CC(CO)O2)c(=O)[nH]1` (stereo unspecified), the TGI in test [1], in test [7], in test [3], in test [4], in test [8] and in test [9] was greater than 100 µM each time.

As to `O=[As](O)(O)c1cc(N=Nc2ccc(-c3ccc(N=Nc4cc([As](=O)(O)O)c(O)cc4O)cc3)cc2)c(O)cc1O`, the TGI in test [1] was greater than 78.4 µM; in test [10], greater than 100 µM; in test [2], greater than 100 µM; in test [6] it was greater than 100 µM; in test [7], greater than 100 µM; in test [4], greater than 100 µM. For the same compound, the TGI in test [8], in test [9] and in [5] was greater than 100 µM throughout.

Turning to `CN1CC(c2ccccc2)N(CCCCN2CC(c3ccccc3)N(C)CC2c2ccccc2)CC1c1ccccc1` (stereo unspecified), the TGI in [1], in test [10], in [6], in test [7], in [3] and in test [4] was greater than 100 µM in each case. Besides, the TGI in test [8] is 42.6 µM; in [9], greater than 100 µM; in test [5] it was greater than 100 µM.

With `COc1c/c(=C2/C=c3ccccc3=N2)[nH]/c1=C/c1[nH]c(C)cc1C`, the GI50 in [1] was 0.046 µM; in [6], 0.0724 µM; in test [7], 0.108 µM; in test [3], 0.0647 µM; in test [4], 0.0346 µM. In addition, the TGI is 1.02 µM in test [1]; greater than 100 µM in [6]; greater than 100 µM in test [7]; 2.58 µM in test [3]; 1.2 µM in test [4].

As to `OC1OC(c2ccco2)C(F)(F)C(F)(F)C1(F)F` (stereo unspecified), the TGI in [1], in test [10], in [6], in test [3], in [8] and in [9] was greater than 100 µM each time.
